Results taken from patent publication US20070238727A1, “5-Substituted 1-Phenyl-1,5-Dihydro-Pyrido[3,2-B]Indol-2-Ones and Analogs as Anti-Virals” (Tibotec BVBA, priority 2004, published 2007).

Molecular target: T1, HIV reverse transcriptase (Human immunodeficiency virus type 1 group M subtype B, UniProt P04585)
T1 construct: 5 μl HIV RT enzyme solution at a final enzyme activity of 15 mU per 50 μl reaction; purchased Amersham Life Sciences TRK 1022
Assay: In vitro inhibition of HIV reverse transcriptase (kit TRK 1022, 3H-TTP)
Type: biochemical
Details: HIV RT enzyme, 4 hours at 37° C., no conversion to active metabolite needed
Procedure: The assay was run using kit TRK 1022 (Amersham Life Sciences) according to the manufacturer's instructions with slight modifications. Test compounds were diluted in steps of 1/4 in 100% DMSO and subsequently transferred to Medium A (1/50 dilution; medium A: RPMI 1640+10% FetalClone 1+Gentamycin 20 mg/L). 25 μl of compound (in 2% DMSO in Medium A) or 25 μl of 2% DMSO in medium A was added to wells. To each well was added 25.5 μl master mix (master mix: 5 μl primer/template beads, 10 μl assay buffer, 0.5 μl tracer (3H-TTP), 5 μl HIV RT enzyme solution at a final enzyme activity of 15 mU per 50 μl reaction, 5 μl medium A). The plates were sealed, marked as radioactive and incubated during 4 hours at 37° C. Subsequently, 100 μl stop solution was added to each well (except R1). The radioactivity was counted in a TopCount.

SMILES	inhibition of HIV reverse transcriptase in vitro
N#Cc1cc2c(c3ccccc3n2CC(O)CN2CCCC2)n(-c2ccc([N+](=O)[O-])cc2)c1=O (stereo not drawn) [Compound 2, 5-(2-Hydroxy-3-pyrrolidin-1-yl-propyl)-1-(4-nitro-phenyl)-2-oxo-2,5-dihydro-1H-pyrido[3,2-b]indole-3-carbonitrile]	inhibit IV reverse transcriptase in vitro

System: HIV
Assay: Cellular assay: anti-viral activity in HIV-infected MT4 cells (MTT)
Type: cell-based
Details: Human immunodeficiency virus 1, 120 h, five days incubation, negative logarithm of EC50
Procedure: Compounds of the present invention were examined for anti-viral activity in a cellular assay, which was performed according to the following procedure.
HIV- or mock-infected MT4 cells were incubated for five days in the presence of various concentrations of the inhibitor. At the end of the incubation period, the replicating virus in the control cultures has killed all HIV-infected cells in the absence of any inhibitor. Cell viability was determined by measuring the concentration of MTT, a yellow, water soluble tetrazolium dye that is converted to a purple, water insoluble formazan in the mitochondria of living cells only. Upon solubilization of the resulting formazan crystals with isopropanol, the absorbance of the solution was monitored at 540 nm. The values correlate directly to the number of living cells remaining in the culture at the completion of the five day incubation. The inhibitory activity of the compound was monitored on the virus-infected cells and was expressed as EC50 and EC90. These values represent the amount of the compound required to protect 50% and 90%, respectively, of the cells from the cytopathogenic effect of the virus. The toxicity of the compound was measured on the mock-infected cells and was expressed as CC50, which represents the concentration of compound required to inhibit the growth of the cells by 50%. The selectivity index (SI) (ratio CC50/EC50) is an indication of the selectivity of the anti-HIV activity of the inhibitor. Wherever results are reported as e.g. pEC50 or pCC50 values, the result is expressed as the negative logarithm of the result expressed as EC50 or CC50 respectively.

SMILES	EC50 [nM]
N#Cc1cc2c(c3ccccc3n2CC(O)CN2CCCC2)n(-c2ccc([N+](=O)[O-])cc2)c1=O (stereo not drawn) [Compound 2, 5-(2-Hydroxy-3-pyrrolidin-1-yl-propyl)-1-(4-nitro-phenyl)-2-oxo-2,5-dihydro-1H-pyrido[3,2-b]indole-3-carbonitrile]	251
COCCOCCn1c2ccccc2c2c1cc(C#N)c(=O)n2-c1ccc([N+](=O)[O-])cc1 [Compound 4, 5-[2-(2-Methoxy-ethoxy)-ethyl]-1-(4-nitro-phenyl)-2-oxo-2,5-dihydro-1H-pyrido-[3,2-b]indole-3-carbonitrile]	316
N#Cc1cc2c(c3ccccc3n2CC(O)CN2CCSCC2)n(-c2ccc([N+](=O)[O-])cc2)c1=O (stereo not drawn) [Compound 9]	794
COCCOCCOCCn1c2ccccc2c2c1cc(C#N)c(=O)n2-c1ccc([N+](=O)[O-])cc1 [Compound 11]	1580
COC(Cn1c2ccccc2c2c1cc(C#N)c(=O)n2-c1ccc([N+](=O)[O-])cc1)C[N+](C)(C)C (stereo not drawn) [Compound 13]	15800
CC(=O)OC(CN1CCCC1)Cn1c2ccccc2c2c1cc(C#N)c(=O)n2-c1ccc([N+](=O)[O-])cc1 (stereo not drawn) [Compound 21]	501
N#Cc1cc2c(c3ccccc3n2CCCONC(=N)N)n(-c2ccc([N+](=O)[O-])cc2)c1=O [Compound 25]	15800
CC1CCCN(CCn2c3ccccc3c3c2cc(C#N)c(=O)n3-c2ccc([N+](=O)[O-])cc2)C1 (stereo not drawn) [Compound 31]	1000
CC(=O)N1CCN(CCCn2c3ccccc3c3c2cc(C#N)c(=O)n3-c2ccc([N+](=O)[O-])cc2)CC1 [Compound 35]	2510
CC1CN(CCn2c3ccccc3c3c2cc(C#N)c(=O)n3-c2ccc([N+](=O)[O-])cc2)CC(C)O1 (stereo not drawn) [Compound 40]	1000
N#Cc1cc2oc3ccccc3c2n(-c2ccc([N+](=O)[O-])cc2)c1=O [Compound 42, 1-(4-Nitro-phenyl)-2-oxo-1,2-dihydro-benzo[4,5]furo[3,2-b]pyridine-3-carbonitrile]	794
